# Target: glucosylceramide synthase (GCS) enzyme in Golgi preparations from human A375 malignant melanoma skin cells (Homo sapiens (Human), UniProt Q16739)
# Assay: UDP-Glo glucosylceramide synthase biochemical assay
# Details: 1.5 μg crude golgi preparation; C6 ceramide and UDP-glucose at 2×Km; 20 h incubation at room temperature; luminescence
# Description: UDP-Glo™ Glucosylceramide Synthase Biochemical Assay
# A UDP-Glo™ glucosylceramide synthase biochemical assay was utilized to evaluate the effect of test compounds on the activity of endogenous levels of GCS enzyme contained within Golgi preparations isolated from human A375 malignant melanoma skin cells. The UDP-Glo™ glucosylceramide synthase assay uses UDP-Glucose as a nucleotide-glycosyl donor and ceramide as substrate acceptor molecules. In the reaction, glucosylceramide synthase (GCS) transfers glucose from UDP-Glucose to ceramide. Glucosylceramide and UDP are released as products.
# Using Promega's UDP-Glo™ Glycosyltransferase assay kit (Promega Corporation, Madison, WI, USA (Promega)), GCS activity was indirectly measured by detecting the amount of UDP produced. An aliquot of GCS enzyme (1.5 μg crude golgi preparation, total protein) and titrated test compound were aliquoted to each well and incubated for 30 minutes at room temperature. Substrate mixture was prepared by mixing C6 ceramide (Avanti Polar Lipids, Alabaster, AL USA (Avanti)) (micelles prepared at 0.6 mM in 0.6 mM DOPC) and UDP-glucose (20 μM; Promega), at concentrations equivalent to 2×Km, in assay buffer (25 mM HEPES (pH 7.5), 50 mM KCl, 5 mM MgCl2). An equivalent volume of substrate mixture was then added to each well. Following a 20 h incubation at room temperature to allow for GCS turnover of substrate, an equal volume of UDP detection reagent (Promega) was added to each well and incubated for an additional 75 minutes at room temperature to simultaneously convert the accumulated UDP product into ATP and generate light in a luciferase reaction. The generated light was detected using a luminometer. […] luminescence values (RLUs) were normalized to mean “min” and “max” effects, as determined on each plate. “Min” was defined as the mean of the values of the wells treated with vehicle (DMSO) and which represent 0% inhibition; “max” was defined as the mean of the values of the wells treated with a reference inhibitor and which represent the 100% effect. Values for % Emax and EC50 were determined by best-fitting the normalized data to a curve in Activity Base along a four-parameter logistic nonlinear regression (4PL) model (based on the Levenberg-Marquardt algorithm and defined by the equation below): […]
# where: n is 4PMin (bottom of the curve); m is 4PMax (top of the curve); i is IP (inflection point of curve); andp is slope. See Levenberg, K., “A Method for the Solution of Certain Problems in Least Squares”, Quart. Appl. Math. 2, (1944), pp 164-168 and Marquardt, D., “An Algorithm for Least Squares Estimation on Nonlinear Parameters”, SIAM J. Appl. Math. 11, (1963) pp 431-441.
# glucosylceramide synthase (GCS) enzyme in Golgi preparations from human A375 malignant melanoma skin cells, sequence (Q16739 whole entry): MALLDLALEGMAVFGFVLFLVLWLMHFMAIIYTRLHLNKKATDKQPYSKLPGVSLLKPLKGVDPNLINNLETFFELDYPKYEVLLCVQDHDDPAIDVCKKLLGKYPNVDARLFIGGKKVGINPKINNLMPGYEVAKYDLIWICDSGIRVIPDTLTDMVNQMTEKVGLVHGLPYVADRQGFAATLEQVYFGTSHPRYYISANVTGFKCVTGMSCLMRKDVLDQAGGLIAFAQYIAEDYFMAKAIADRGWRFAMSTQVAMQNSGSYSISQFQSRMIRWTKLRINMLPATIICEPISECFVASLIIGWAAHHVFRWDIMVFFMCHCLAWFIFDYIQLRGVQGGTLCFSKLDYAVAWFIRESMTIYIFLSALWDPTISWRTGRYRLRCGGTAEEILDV
row,SMILES,EC50 [nM]
1,"O=C(N1CCN2CCC1CC2)n1nc(C23CCCC2C3)c2c1CCC2 (single isomer, unassigned) [Compound 9, R or S-(3-(bicyclo[3.1.0]hexan-1-yl)-5,6-dihydrocyclopenta[c]pyrazol-1(4H)-yl)(1,4-diazabicyclo[3.2.2]nonan-4-yl)methanone]",2.4
2,"O=C(N1CCN2CCC1CC2)n1nc(-c2cc(F)c(F)c(F)c2)c2c1CCOC2 [Compound 46, (1,4-diazabicyclo[3.2.2]nonan-4-yl)(3-(3,4,5-trifluorophenyl)-6,7-dihydropyrano[4,3-c]pyrazol-1(4H)-yl)methanone]",4.6
3,"Cc1ccccc1-c1nn(C(=O)N2CCN3CCC2CC3)c2c1CCOC2 [Compound 28, (1,4-diazabicyclo[3.2.2]nonan-4-yl)(3-(o-tolyl)-4,7-dihydropyrano[3,4-c]pyrazol-1(5H)-yl)methanone]",6.6
4,"O=C(N1CCN2CCC1CC2)n1nc(-c2ccc(Cl)cn2)c2c1CCOC2 [Compound 48, (1,4-diazabicyclo[3.2.2]nonan-4-yl)(3-(5-chloropyridin-2-yl)-6,7-dihydropyrano[4,3-c]pyrazol-1(4H)-yl)methanone]",2
5,"O=C(N1CCN2CCC1CC2)n1nc(-c2ccc(F)c(Cl)c2)c2c1CCOC2 [Compound 36, (1,4-diazabicyclo[3.2.2]nonan-4-yl)(3-(3-chloro-4-fluorophenyl)-6,7-dihydropyrano[4,3-c]pyrazol-1(4H)-yl)methanone]",0.3
6,"Cc1ccc(-c2nn(C(=O)N3CCN4CCC3CC4)c3c2CCC3)cc1 [Compound 31, 1,4-diazabicyclo[3.2.2]nonan-4-yl-[3-(p-tolyl)-5,6-dihydro-4H-cyclopenta[c]pyrazol-1-yl]methanone]",0.2
7,"Cc1c(-c2ccc(F)cc2)nn(C(=O)N2CCN3CCC2CC3)c1C [Compound 64, (1,4-diazabicyclo[3.2.2]nonan-4-yl)(3-(4-fluorophenyl)-4,5-dimethyl-1H-pyrazol-1-yl)methanone]",8.8
8,"O=C(N1CCN2CCC1CC2)n1nc(N2CCC3(CC2)CC3)c2c1COCC2 [Compound 52, (3-(6-azaspiro[2.5]octan-6-yl)-4,7-dihydropyrano[3,4-c]pyrazol-1(5H)-yl)(1,4-diazabicyclo[3.2.2]nonan-4-yl)methanone]",18.3
9,"O=C(N1CCN2CCC1CC2)n1nc(-c2ccc(F)cc2)c2c1CC1CC21 (single isomer, unassigned) [Compound 15, (R,R) or (S,S)--(1,4-diazabicyclo[3.2.2]nonan-4-yl)(3-(4-fluorophenyl)-3b,4,4a,5-tetrahydro-1H-cyclopropa[3,4]cyclopenta[1,2-c]pyrazol-1-yl)methanone]",0.1
10,"O=C(N1CCN2CCC1CC2)n1nc(-n2cc(C(F)(F)F)cn2)c2c1CCC2 [Compound 54, (1,4-diazabicyclo[3.2.2]nonan-4-yl)(3-(4-(trifluoromethyl)-1H-pyrazol-1-yl)-5,6-dihydrocyclopenta[c]pyrazol-1(4H)-yl)methanone]",0.8
11,"Cn1ncc2ccc(-c3nn(C(=O)N4CCN5CCC4CC5)c4c3CCC4)cc21 [Compound 22, 1,4-diazabicyclo[3.2.2]nonan-4-yl-[3-(1-methylindazol-6-yl)-5,6-dihydro-4H-cyclopenta[c]pyrazol-1-yl]methanone]",6.3
12,"O=C(N1CCN2CCC1CC2)n1nc(-c2ccc(F)cc2)c2c1C1CCC2C1 [Compound 14, (R,R) and (S,S)-(1,4-diazabicyclo[3.2.2]nonan-4-yl)(3-(4-fluorophenyl)-4,5,6,7-tetrahydro-1H-4,7-methanoindazol-1-yl)methanone]",1.2
13,"O=C(N1CCN2CCC1CC2)n1nc(-c2ccc(OC(F)F)c(Cl)c2)c2c1COCC2 [Compound 2, 1,4-diazabicyclo[3.2.2]nonan-4-yl(3-(3-chloro-4-(difluoromethoxy)phenyl)-4,5-dihydropyrano[3,4-c]pyrazol-1(7H)-yl)methanone]",2.9
14,"COc1cccc(-c2nn(C(=O)N3CCN4CCC3CC4)c3c2CCC3)c1F [Compound 41, 1,4-diazabicyclo[3.2.2]nonan-4-yl-[3-(2-fluoro-3-methoxy-phenyl)-5,6-dihydro-4H-cyclopenta[c]pyrazol-1-yl]methanone]",0.5
15,"O=C(N1CCN2CCC1CC2)n1nc(-c2ccc(F)cc2)c2c1CCC2 [Compound 12, 1,4-diazabicyclo[3.2.2]nonan-4-yl-[3-(4-fluorophenyl)-5,6-dihydro-4H-cyclopenta[c]pyrazol-1-yl]methanone]",0.3
16,"COc1ccc(-c2nn(C(=O)N3CCN4CCC3CC4)c3c2CCC3)cc1 [Compound 4, 1,4-diazabicyclo[3.2.2]nonan-4-yl-[3-(4-methoxyphenyl)-5,6-dihydro-4H-cyclopenta[c]pyrazol-1-yl]methanone]",0.2
17,"O=C(N1CCN2CCC1CC2)n1nc(-c2ccc(F)cc2)c2c1CC(F)(F)C2 [Compound 20, (1,4-diazabicyclo[3.2.2]nonan-4-yl)(5,5-difluoro-3-(4-fluorophenyl)-5,6-dihydrocyclopenta[c]pyrazol-1(4H)-yl)methanone]",4.7
18,"O=C(N1CCN2CCC1CC2)n1nc(-c2ccc(F)cc2)c2c1COCC2 [Compound 1, 1,4-diazabicyclo[3.2.2]nonan-4-yl(3-(4-fluorophenyl)-4,5-dihydropyrano[3,4-c]pyrazol-1(7H)-yl)methanone]",5.1
19,"COc1ncc(-c2nn(C(=O)N3CCN4CCC3CC4)c3c2C[C@@H]2C[C@H]32)cc1Cl [Compound 8, (1,4-diazabicyclo[3.2.2]nonan-4-yl)((4aS,5aS)-3-(5-chloro-6-methoxypyridin-3-yl)-4,4a,5,5a-tetrahydro-1H-cyclopropa[4,5]cyclopenta[1,2-c]pyrazol-1-yl)methanone]",0.1
20,"COc1ncc(-c2nn(C(=O)N3CCN4CCC3CC4)c3c2CCC3)cc1Cl [Compound 6, [3-(5-chloro-6-methoxy-3-pyridyl)-5,6-dihydro-4H-cyclopenta[c]pyrazol-1-yl]-(1,4-diazabicyclo[3.2.2]nonan-4-yl)methanone]",0.4
21,"O=C(N1CCN2CCC1CC2)n1nc(-c2ccc(C(F)(F)F)cc2)c2c1COCC2 [Compound 30, (1,4-diazabicyclo[3.2.2]nonan-4-yl)(3-(4-(trifluoromethyl)phenyl)-4,7-dihydropyrano[3,4-c]pyrazol-1(5H)-yl)methanone]",2.7
22,"O=C(N1CCN2CCC1CC2)n1nc(-c2ccc(F)cc2)c2c1CCC(F)(F)C2 [Compound 19, (1,4-diazabicyclo[3.2.2]nonan-4-yl)(5,5-difluoro-3-(4-fluorophenyl)-4,5,6,7-tetrahydro-1H-indazol-1-yl)methanone]",8.2
23,"Cc1cnn(-c2nn(C(=O)N3CCN4CCC3CC4)c3c2CCC3)c1 [Compound 57, (1,4-diazabicyclo[3.2.2]nonan-4-yl)(3-(4-methyl-1H-pyrazol-1-yl)-5,6-dihydrocyclopenta[c]pyrazol-1(4H)-yl)methanone]",9.2
24,"CC1CCOc2c1c(-c1ccc(F)cc1)nn2C(=O)N1CCN2CCC1CC2 (stereo not drawn) [Compound 62, R and S-(1,4-diazabicyclo[3.2.2]nonan-4-yl)(3-(4-fluorophenyl)-4-methyl-5,6-dihydropyrano[2,3-c]pyrazol-1(4H)-yl)methanone]",7.7
25,"O=C(N1CCN2CCC1CC2)n1nc(-c2ccc3c(c2)CCO3)c2c1CCC2 [Compound 43, 1,4-diazabicyclo[3.2.2]nonan-4-yl-[3-(2,3-dihydrobenzofuran-5-yl)-5,6-dihydro-4H-cyclopenta[c]pyrazol-1-yl]methanone]",0.5
26,"O=C(N1CCN2CCC1CC2)n1nc(-c2ccc(F)cc2)c2c1CCOC2 [Compound 13, 1,4-diazabicyclo[3.2.2]nonan-4-yl-[3-(4-fluorophenyl)-6,7-dihydro-4H-pyrano[4,3-c]pyrazol-1-yl]methanone]",4.1
27,"O=C(N1CCN2CCC1CC2)n1nc(OC2CCCC2)c2c1CCC2 [Compound 26, (1,4-diazabicyclo[3.2.2]nonan-4-yl)(3-(cyclopentyloxy)-5,6-dihydrocyclopenta[c]pyrazol-1(4H)-yl)methanone]",23.3
28,"COc1ncc(-c2nn(C(=O)N3CCN4CCC3CC4)c3c2COCC3)cc1Cl [Compound 47, (1,4-diazabicyclo[3.2.2]nonan-4-yl)(3-(5-chloro-6-methoxypyridin-3-yl)-6,7-dihydropyrano[4,3-c]pyrazol-1(4H)-yl)methanone]",8.3

# From patent US20250026762A1, “FUSED PYRAZOLE UREA ANALOGS AS GLUCOSYLCERAMIDE SYNTHASE INHIBITORS” (Merck Sharp & Dohme LLC, priority 2021, published 2025)
